According to ChEMBL document CHEMBL3875185, “Structure-anticonvulsant activity studies in the group of (E)-N-cinnamoyl aminoalkanols derivatives monosubstituted in phenyl ring with 4-Cl, 4-CH3 or 2-CH3” (Bioorg Med Chem, 2017):
Calls of active or inactive are those of the source. The rule behind the calls is not given here.

Assays:
Rattus norvegicus [1] = experiment: Neurotoxicity in Sprague-Dawley rat assessed as behavioral change at 30 mg/kg, po measured at […] post dose; format: toxicity, organism-based; conditions: in vivo
Mus musculus [2] = experiment: Anticonvulsant activity in maximal electroshock induced seizure mouse model assessed as suppression in hindlimb tonic extension at 100 mg/kg, ip measured at 0.5 hrs post dose; format: functional, organism-based
Mus musculus [3] = experiment: Anticonvulsant activity in maximal electroshock induced seizure mouse model assessed as suppression in hindlimb tonic extension at 300 mg/kg, ip measured at 0.5 hrs post dose; format: functional, organism-based
Mus musculus [4] = experiment: Anticonvulsant activity in pentylenetetrazole induced seizure mouse model assessed as no observable episode of clonic convulsion of at least 5 secs at 300 mg/kg, ip measured at 0.5 hrs post dose; format: functional, organism-based
Mus musculus [5] = experiment: Neurotoxicity in mouse assessed as induction of motor impairment at 30 mg/kg, ip measured at 0.5 hrs post dose by rotarod method; format: toxicity, organism-based; conditions: in vivo
Mus musculus [6] = experiment: Neurotoxicity in mouse assessed as induction of motor impairment at 300 mg/kg, ip measured at 0.5 hrs post dose by rotarod method; format: toxicity, organism-based; conditions: in vivo
Mus musculus [7] = experiment: Neurotoxicity in mouse assessed as induction of motor impairment at 30 mg/kg, ip measured at 4 hrs post dose by rotarod method; format: toxicity, organism-based; conditions: in vivo
Mus musculus [8] = experiment: Neurotoxicity in mouse assessed as induction of motor impairment at 100 mg/kg, ip measured at 4 hrs post dose by rotarod method; format: toxicity, organism-based; conditions: in vivo
Mus musculus [9] = experiment: Neurotoxicity in mouse assessed as induction of motor impairment at 300 mg/kg, ip measured at 4 hrs post dose by rotarod method; format: toxicity, organism-based; conditions: in vivo
Rattus norvegicus [10] = experiment: Neurotoxicity in Sprague-Dawley rat assessed as behavioral change at 30 mg/kg, po measured at 1 hr post dose; format: toxicity, organism-based; conditions: in vivo
Rattus norvegicus [11] = experiment: Neurotoxicity in Sprague-Dawley rat assessed as behavioral change at 30 mg/kg, po measured at 0.5 hrs post dose; format: toxicity, organism-based; conditions: in vivo
Rattus norvegicus [12] = experiment: Neurotoxicity in Sprague-Dawley rat assessed as behavioral change at 30 mg/kg, po measured at 2 hrs post dose; format: toxicity, organism-based; conditions: in vivo
Rattus norvegicus [13] = experiment: Neurotoxicity in Sprague-Dawley rat assessed as behavioral change at 30 mg/kg, po measured at 4 hrs post dose; format: toxicity, organism-based; conditions: in vivo
Mus musculus [14] = experiment: Anticonvulsant activity in maximal electroshock induced seizure mouse model assessed as suppression in hindlimb tonic extension at 300 mg/kg, ip measured at 4 hrs post dose; format: functional, organism-based
Mus musculus [15] = experiment: Neurotoxicity in mouse assessed as induction of motor impairment at 100 mg/kg, ip measured at 0.5 hrs post dose by rotarod method; format: toxicity, organism-based; conditions: in vivo
Rattus norvegicus [16] = experiment: Neurotoxicity in Sprague-Dawley rat assessed as behavioral change at 30 mg/kg, ip measured at […] post dose; format: toxicity, organism-based; conditions: in vivo
Rattus norvegicus [17] = experiment: Neurotoxicity in Sprague-Dawley rat assessed as behavioral change at 30 mg/kg, ip measured at 0.5 hrs post dose; format: toxicity, organism-based; conditions: in vivo
Rattus norvegicus [18] = experiment: Neurotoxicity in Sprague-Dawley rat assessed as behavioral change at 30 mg/kg, ip measured at 1 hr post dose; format: toxicity, organism-based; conditions: in vivo
Rattus norvegicus [19] = experiment: Neurotoxicity in Sprague-Dawley rat assessed as behavioral change at 30 mg/kg, ip measured at 2 hrs post dose; format: toxicity, organism-based; conditions: in vivo
Rattus norvegicus [20] = experiment: Neurotoxicity in Sprague-Dawley rat assessed as behavioral change at 30 mg/kg, ip measured at 4 hrs post dose; format: toxicity, organism-based; conditions: in vivo
Mus musculus [21] = experiment: Anticonvulsant activity in ip dosed maximal electroshock induced seizure mouse model assessed as suppression in hindlimb tonic extension by measuring time to peak effect; format: functional
Mus musculus [22] = experiment: Neurotoxicity in ip dosed mouse assessed as induction of motor impairment by measuring time to peak effect by rotarod method; format: toxicity, organism-based; conditions: in vivo
Mus musculus [23] = experiment: Anticonvulsant activity in ip dosed maximal electroshock induced seizure mouse model assessed as suppression in hindlimb tonic extension; format: functional
[24] = Neurotoxicity in ip dosed mouse; format: toxicity, organism-based; conditions: in vivo
[25] = Protection index, ratio of TD50 for neurotoxicity in ip dosed mouse to ED50 for ip dosed maximal electroshock induced seizure mouse model; format: toxicity, organism-based; conditions: in vivo, read-out: Ratio TD50/ED50
Mus musculus [26] = experiment: Anticonvulsant activity in pentylenetetrazole induced seizure mouse model assessed as no observable episode of clonic convulsion of at least 5 secs at 100 mg/kg, ip measured at 0.5 hrs post dose; format: functional, organism-based
Mus musculus [27] = experiment: Anticonvulsant activity in 6-Hz induced seizure mouse model assessed as restoration of normal activity within 10 secs from stimulation at 100 mg/kg, ip at 32 mA measured at […] post dose; format: functional, organism-based
Mus musculus [28] = experiment: Anticonvulsant activity in 6-Hz induced seizure mouse model assessed as restoration of normal activity within 10 secs from stimulation at 100 mg/kg, ip at 32 mA measured at 0.5 hrs post dose; format: functional, organism-based
Mus musculus [29] = experiment: Anticonvulsant activity in maximal electroshock induced seizure mouse model assessed as suppression in hindlimb tonic extension at 30 mg/kg, ip measured at 4 hrs post dose; format: functional, organism-based
Mus musculus [30] = experiment: Anticonvulsant activity in maximal electroshock induced seizure mouse model assessed as suppression in hindlimb tonic extension at 100 mg/kg, ip measured at 4 hrs post dose; format: functional, organism-based

## Cc1ccccc1/C=C/C(=O)NC(C)CO (stereo not drawn)
Rattus norvegicus [1]
  Activity: Non-Toxic
Mus musculus [2]
  Activity: Active
Mus musculus [3]
  Activity: Active
Mus musculus [4]
  Activity: Active
Mus musculus [5]
  Activity: Non-Toxic
Mus musculus [6]
  Activity: Toxic
Mus musculus [7]
  Activity: Non-Toxic
Mus musculus [8]
  Activity: Non-Toxic
Mus musculus [9]
  Activity: Non-Toxic
Rattus norvegicus [10]
  Activity: Non-Toxic
Rattus norvegicus [11]
  Activity: Non-Toxic
Rattus norvegicus [12]
  Activity: Non-Toxic
Rattus norvegicus [13]
  Activity: Non-Toxic

## CC(C)(CO)NC(=O)/C=C/c1ccc(Cl)cc1
Rattus norvegicus [1]
  Activity: Non-Toxic
Mus musculus [3]
  Activity: Active
Mus musculus [14]
  Activity: Active
Mus musculus [5]
  Activity: Non-Toxic
Mus musculus [15]
  Activity: Non-Toxic
Mus musculus [7]
  Activity: Non-Toxic
Mus musculus [8]
  Activity: Non-Toxic
Mus musculus [9]
  Activity: Non-Toxic
Rattus norvegicus [10]
  Activity: Non-Toxic
Rattus norvegicus [11]
  Activity: Non-Toxic
Rattus norvegicus [12]
  Activity: Non-Toxic
Rattus norvegicus [13]
  Activity: Non-Toxic
Rattus norvegicus [16]
  Activity: Non-Toxic
Rattus norvegicus [17]
  Activity: Non-Toxic
Rattus norvegicus [18]
  Activity: Non-Toxic
Rattus norvegicus [19]
  Activity: Non-Toxic
Rattus norvegicus [20]
  Activity: Non-Toxic

## CC[C@@H](CO)NC(=O)/C=C/c1ccc(Cl)cc1
Mus musculus [21]
  Time: 0.25 h
Mus musculus [2]
  Activity: Active
Mus musculus [15]
  Activity: Toxic
Mus musculus [22]
  Time: 0.25 h
Mus musculus [23]
  ED50: 43.3 mg/kg
[24]
  TD50: 56.4 mg/kg
[25]
  selectivity ratio: 1.3

## CC[C@@H](CO)NC(=O)/C=C/c1ccc(C)cc1
Mus musculus [3]
  Activity: Active
Mus musculus [4]
  Activity: Active
Mus musculus [5]
  Activity: Non-Toxic
Mus musculus [15]
  Activity: Non-Toxic
Mus musculus [6]
  Activity: Toxic
Mus musculus [7]
  Activity: Non-Toxic
Mus musculus [8]
  Activity: Non-Toxic
Mus musculus [9]
  Activity: Non-Toxic

## Cc1ccccc1/C=C/C(=O)NCC(C)O (stereo not drawn)
Mus musculus [2]
  Activity: Active
Mus musculus [3]
  Activity: Active
Mus musculus [14]
  Activity: Active
Mus musculus [26]
  Activity: Active
Mus musculus [4]
  Activity: Active
Mus musculus [5]
  Activity: Non-Toxic
Mus musculus [6]
  Activity: Toxic
Mus musculus [7]
  Activity: Non-Toxic
Mus musculus [8]
  Activity: Non-Toxic

## CCC(O)CNC(=O)/C=C/c1ccc(C)cc1 (stereo not drawn)
Mus musculus [15]
  Activity: Non-Toxic
Mus musculus [8]
  Activity: Non-Toxic
Rattus norvegicus [16]
  Activity: Non-Toxic
Rattus norvegicus [17]
  Activity: Non-Toxic
Rattus norvegicus [18]
  Activity: Non-Toxic
Rattus norvegicus [19]
  Activity: Non-Toxic
Rattus norvegicus [20]
  Activity: Non-Toxic

## Cc1ccc(/C=C/C(=O)NCC(C)O)cc1 (stereo not drawn)
Mus musculus [3]
  Activity: Active
Mus musculus [4]
  Activity: Active
Mus musculus [5]
  Activity: Non-Toxic
Mus musculus [15]
  Activity: Non-Toxic
Mus musculus [6]
  Activity: Toxic
Mus musculus [7]
  Activity: Non-Toxic
Mus musculus [8]
  Activity: Non-Toxic
Mus musculus [9]
  Activity: Non-Toxic

## CC[C@H](CO)NC(=O)/C=C/c1ccc(Cl)cc1
Mus musculus [21]
  Time: 0.25 h
Mus musculus [2]
  Activity: Active
Mus musculus [15]
  Activity: Toxic
Mus musculus [22]
  Time: 0.25 h
Mus musculus [23]
  ED50: 27.3 mg/kg
[24]
  TD50: 105 mg/kg
[25]
  selectivity ratio: 3.85

## Cc1ccccc1/C=C/C(=O)NC1CCCCC1O (racemic)
Mus musculus [3]
  Activity: Active
Mus musculus [5]
  Activity: Non-Toxic
Mus musculus [15]
  Activity: Non-Toxic
Mus musculus [6]
  Activity: Non-Toxic
Mus musculus [7]
  Activity: Non-Toxic
Mus musculus [8]
  Activity: Non-Toxic
Mus musculus [9]
  Activity: Non-Toxic

## Cc1ccccc1/C=C/C(=O)N[C@H](C)CO
Rattus norvegicus [1]
  Activity: Non-Toxic
Mus musculus [3]
  Activity: Active
Mus musculus [4]
  Activity: Active
Mus musculus [5]
  Activity: Non-Toxic
Mus musculus [15]
  Activity: Non-Toxic
Mus musculus [6]
  Activity: Toxic
Mus musculus [7]
  Activity: Non-Toxic
Mus musculus [8]
  Activity: Non-Toxic
Mus musculus [9]
  Activity: Non-Toxic
Mus musculus [27]
  Activity: Active
Mus musculus [28]
  Activity: Active
Rattus norvegicus [10]
  Activity: Non-Toxic
Rattus norvegicus [11]
  Activity: Non-Toxic
Rattus norvegicus [12]
  Activity: Non-Toxic
Rattus norvegicus [13]
  Activity: Non-Toxic

## Cc1ccccc1/C=C/C(=O)N[C@H]1CC[C@H](O)CC1
Rattus norvegicus [1]
  Activity: Non-Toxic
Mus musculus [29]
  Activity: Active
Mus musculus [30]
  Activity: Active
Mus musculus [14]
  Activity: Active
Mus musculus [5]
  Activity: Non-Toxic
Mus musculus [7]
  Activity: Non-Toxic
Mus musculus [9]
  Activity: Non-Toxic
Rattus norvegicus [10]
  Activity: Non-Toxic
Rattus norvegicus [11]
  Activity: Non-Toxic
Rattus norvegicus [12]
  Activity: Non-Toxic
Rattus norvegicus [13]
  Activity: Non-Toxic

## Cc1ccc(/C=C/C(=O)NC(C)CO)cc1 (stereo not drawn)
Rattus norvegicus [1]
  Activity: Non-Toxic
Mus musculus [2]
  Activity: Active
Mus musculus [3]
  Activity: Active
Mus musculus [4]
  Activity: Active
Mus musculus [5]
  Activity: Non-Toxic
Mus musculus [15]
  Activity: Non-Toxic
Mus musculus [6]
  Activity: Toxic
Mus musculus [7]
  Activity: Non-Toxic
Mus musculus [8]
  Activity: Non-Toxic
Mus musculus [9]
  Activity: Non-Toxic
Rattus norvegicus [10]
  Activity: Non-Toxic
Rattus norvegicus [11]
  Activity: Non-Toxic
Rattus norvegicus [12]
  Activity: Non-Toxic
Rattus norvegicus [13]
  Activity: Non-Toxic

## Cc1ccc(/C=C/C(=O)NC2CCCCC2O)cc1 (racemic)
Mus musculus [15]
  Activity: Non-Toxic
Mus musculus [8]
  Activity: Non-Toxic

## CC[C@@H](CO)NC(=O)/C=C/c1ccccc1C
Rattus norvegicus [1]
  Activity: Non-Toxic
Mus musculus [2]
  Activity: Active
Mus musculus [3]
  Activity: Active
Mus musculus [4]
  Activity: Active
Mus musculus [5]
  Activity: Non-Toxic
Mus musculus [15]
  Activity: Non-Toxic
Mus musculus [6]
  Activity: Toxic
Mus musculus [7]
  Activity: Non-Toxic
Mus musculus [8]
  Activity: Non-Toxic
Mus musculus [9]
  Activity: Non-Toxic
Rattus norvegicus [10]
  Activity: Non-Toxic
Rattus norvegicus [11]
  Activity: Non-Toxic
Rattus norvegicus [12]
  Activity: Non-Toxic
Rattus norvegicus [13]
  Activity: Non-Toxic

## CC(CO)NC(=O)/C=C/c1ccc(Cl)cc1 (stereo not drawn)
Rattus norvegicus [1]
  Activity: Non-Toxic
Mus musculus [2]
  Activity: Active
Mus musculus [3]
  Activity: Active
Mus musculus [14]
  Activity: Active
Mus musculus [26]
  Activity: Active
Mus musculus [4]
  Activity: Active
Mus musculus [5]
  Activity: Non-Toxic
Mus musculus [6]
  Activity: Toxic
Mus musculus [7]
  Activity: Non-Toxic
Mus musculus [8]
  Activity: Non-Toxic
Rattus norvegicus [10]
  Activity: Non-Toxic
Rattus norvegicus [11]
  Activity: Non-Toxic
Rattus norvegicus [12]
  Activity: Non-Toxic
Rattus norvegicus [13]
  Activity: Non-Toxic
